According to ChEMBL document CHEMBL5634125, “Investigation of novel 5'-amino adenosine derivatives with potential anti-Zika virus activity” (Eur J Med Chem, 2023):
Activity calls are given as the source filed them. The rule behind the calls is not given here.

Legend:
Zika virus [1] = test: Antiviral activity against Zika virus infected in golden hamster BHK cells assessed as inhibition of virus induced cytopathic effect incubated for 6 to 8 days by CellTiter-Glo luminescent cell viability assay; format: functional, organism-based
[2] = Half-life in ICR mouse at 25 mg/kg, po administered as single dose and measured upto 24 hrs by LC-MS/MS analysis; format: ADME, organism-based; conditions: in vivo
[3] = Acute toxicity in A129 mouse assessed as animal death at 100 mg/kg, po measured after 2 weeks; format: organism-based; conditions: in vivo, 336 h
[4] = Cmax in ICR mouse at 25 mg/kg, po administered as single dose and measured upto 24 hrs by LC-MS/MS analysis; format: ADME, organism-based; conditions: in vivo
[5] = Acute toxicity in po dosed ICR mouse assessed as lethal dose measured after 2 weeks; format: organism-based; conditions: in vivo
[6] = Tmax in ICR mouse at 25 mg/kg, po administered as single dose and measured upto 24 hrs by LC-MS/MS analysis; format: ADME, organism-based; conditions: in vivo
[7] = MRT in ICR mouse at 25 mg/kg, po administered as single dose and measured upto 24 hrs by LC-MS/MS analysis; format: ADME, organism-based; conditions: in vivo
[8] = AUC (0 to t) in ICR mouse at 25 mg/kg, po administered as single dose and measured upto 24 hrs by LC-MS/MS analysis; format: ADME, organism-based; conditions: in vivo
[9] = Acute toxicity in A129 mouse assessed as animal death at 50 mg/kg, po measured after 2 weeks; format: organism-based; conditions: in vivo, 336 h
Zika virus [10] = test: Inhibition of Zika virus NS5 MTase activity at 50 uM by chemiluminescence-based enzymatic assay system relative to control
Zika virus [11] = test: Antiviral activity against Zika virus infected in infected in golden hamster BHK cells assessed as inhibition of viral RNA production at stage III incubated for 24 hrs by qRT-PCR analysis; format: functional, organism-based
Zika virus [12] = test: Antiviral activity against Zika virus infected in golden hamster BHK cells assessed as inhibition of viral RNA production at stage IV pre-infected with virus for 2 hrs followed by compound addition and measured 24 hrs post infection by qRT-PCR analysis; format: functional, organism-based; conditions: time 22.0 hrs
Zika virus [13] = test: Antiviral activity against Zika virus infected in golden hamster BHK-21 cells assessed as inhibition of viral replication incubated for 72 hrs by Dual-luciferase reporter assay system; format: functional, organism-based; conditions: BHK-21, 72 h

SMILES	IC50 (Zika virus [1]) [µM]	further results
CCN(C)c1ncnc2c1ncn2[C@@H]1O[C@H](CNCc2ccc(C(F)(F)F)cc2)[C@@H](O)[C@H]1O	24.9	–
O[C@@H]1[C@H](O)[C@@H](CNCc2ccccc2)O[C@H]1n1cnc2c(NCc3cccc(Cl)c3)ncnc21	4.57	–
O[C@@H]1[C@H](O)[C@@H](CNCc2ccc(C(F)(F)F)cc2)O[C@H]1n1cnc2c(NCc3ccc(Cl)cc3)ncnc21	> 50	–
O=C(NC[C@H]1O[C@@H](n2cnc3c(NCc4cccc(Cl)c4)ncnc32)[C@H](O)[C@@H]1O)c1ccc(F)cc1	> 50	–
CCNC[C@H]1O[C@@H](n2cnc3c(NCc4cccc(Cl)c4)ncnc32)[C@H](O)[C@@H]1O	14.7	–
CC1CCN(C[C@H]2O[C@@H](n3cnc4c(NCc5cccc(Cl)c5)ncnc43)[C@H](O)[C@@H]2O)CC1	6.58	–
O[C@@H]1[C@H](O)[C@@H](CNCc2ccc(OC(F)(F)F)cc2)O[C@H]1n1cnc2c(NCc3cccc(Cl)c3)ncnc21	2.04	–
O[C@@H]1[C@H](O)[C@@H](CNC2CCCCC2)O[C@H]1n1cnc2c(NCc3cccc(Cl)c3)ncnc21	5.28	–
O[C@@H]1[C@H](O)[C@@H](CN2CCCCC2)O[C@H]1n1cnc2c(NCc3cccc(Cl)c3)ncnc21	> 50	–
Cc1cccc(CNc2ncnc3c2ncn3[C@@H]2O[C@H](CNCc3ccc(C(F)(F)F)cc3)[C@@H](O)[C@H]2O)c1	5.55	–
O[C@@H]1[C@H](O)[C@@H](CNCc2ccc(C(F)(F)F)cc2)O[C@H]1n1cnc2c(NCc3cccc(C(F)(F)F)c3)ncnc21	> 50	–
O[C@@H]1[C@H](O)[C@@H](CNCc2ccc(C(F)(F)F)cc2)O[C@H]1n1cnc2c(NCC3CCC3)ncnc21	> 50	–
CC1CCCCN1C[C@H]1O[C@@H](n2cnc3c(NCc4cccc(Cl)c4)ncnc32)[C@H](O)[C@@H]1O (some centres undefined)	5.67	–
O[C@@H]1[C@H](O)[C@@H](CNC2CCCC2)O[C@H]1n1cnc2c(NCc3cccc(Cl)c3)ncnc21	8.49	–
N#Cc1cccc(CNc2ncnc3c2ncn3[C@@H]2O[C@H](CNCc3ccc(C(F)(F)F)cc3)[C@@H](O)[C@H]2O)c1	> 50	–
O[C@@H]1[C@H](O)[C@@H](CNCc2ccc(Cl)cc2)O[C@H]1n1cnc2c(NCc3cccc(Cl)c3)ncnc21	2.7	–
CC1CCCN(C[C@H]2O[C@@H](n3cnc4c(NCc5cccc(Cl)c5)ncnc43)[C@H](O)[C@@H]2O)C1 (some centres undefined)	1.4	half-life [2]: 3.56 h; Activity [3]: Non-Toxic; Cmax [4]: 837 ng/mL; LD50 at 336 h [5]: > 200 mg/kg; Tmax [6]: 0.5 h; MRT [7]: 3.95 h; AUC(0-t) at 24 h [8]: 2910 ng·h/mL; Activity [9]: Non-Toxic
CCN1CCN(C[C@H]2O[C@@H](n3cnc4c(NCc5cccc(Cl)c5)ncnc43)[C@H](O)[C@@H]2O)CC1	> 50	–
O[C@@H]1[C@H](O)[C@@H](CN2CCCC2)O[C@H]1n1cnc2c(NCc3cccc(Cl)c3)ncnc21	17.5	–
O[C@@H]1[C@H](O)[C@@H](CNCc2ccc(C(F)(F)F)cc2)O[C@H]1n1cnc2c(NCc3cccs3)ncnc21	> 50	–
O[C@@H]1[C@H](O)[C@@H](CNCc2cccc3ccccc23)O[C@H]1n1cnc2c(NCc3cccc(Cl)c3)ncnc21	3.58	–
Nc1ncnc2c1ncn2[C@@H]1O[C@H](C[C@@H](N)CC[C@H](N)C(=O)O)[C@@H](O)[C@H]1O	–	inhibition (Zika virus [10]): 67.5%
CCN(CC)C[C@H]1O[C@@H](n2cnc3c(NCc4cccc(Cl)c4)ncnc32)[C@H](O)[C@@H]1O	8.43	–
O[C@@H]1[C@H](O)[C@@H](CNCc2ccc(Br)cc2)O[C@H]1n1cnc2c(NCc3cccc(Cl)c3)ncnc21	2.2	–
O[C@@H]1[C@H](O)[C@@H](CNCc2ccc3ccccc3c2)O[C@H]1n1cnc2c(NCc3cccc(Cl)c3)ncnc21	1.45	–

SMILES	IC50 (Zika virus [1]) [µM]	further results
O[C@@H]1[C@H](O)[C@@H](CNCc2cccc(F)c2)O[C@H]1n1cnc2c(NCc3cccc(Cl)c3)ncnc21	5.76	–
CC(C)NC[C@H]1O[C@@H](n2cnc3c(NCc4cccc(Cl)c4)ncnc32)[C@H](O)[C@@H]1O	6.36	–
O[C@@H]1[C@H](O)[C@@H](CNCc2ccc(C(F)(F)F)cc2)O[C@H]1n1cnc2c(NCC3CCCCC3)ncnc21	> 50	–
Oc1ccc(CNC[C@H]2O[C@@H](n3cnc4c(NCc5cccc(Cl)c5)ncnc43)[C@H](O)[C@@H]2O)cc1	25.8	–
O[C@@H]1[C@H](O)[C@@H](CNCc2ccncc2)O[C@H]1n1cnc2c(NCc3cccc(Cl)c3)ncnc21	> 50	–
CNc1ncnc2c1ncn2[C@@H]1O[C@H](CNCc2ccc(C(F)(F)F)cc2)[C@@H](O)[C@H]1O	> 50	–
Nc1ncnc2c1ncn2[C@@H]1O[C@H](CNCc2ccc(C(F)(F)F)cc2)[C@@H](O)[C@H]1O	> 50	–
O[C@@H]1[C@H](O)[C@@H](CNC2CCC2)O[C@H]1n1cnc2c(NCc3cccc(Cl)c3)ncnc21	7.28	–
O[C@@H]1[C@H](O)[C@@H](CNCc2ccc(F)cc2)O[C@H]1n1cnc2c(NCc3cccc(Cl)c3)ncnc21	3.35	–
COc1ccc(CNC[C@H]2O[C@@H](n3cnc4c(NCc5cccc(Cl)c5)ncnc43)[C@H](O)[C@@H]2O)cc1	5.01	–
O[C@@H]1[C@H](O)[C@@H](CN2CCOCC2)O[C@H]1n1cnc2c(NCc3cccc(Cl)c3)ncnc21	> 50	–
C#C[C@@]1(O)[C@H](O)[C@@H](CO)O[C@H]1n1ccc2c(N)ncnc21	0.85	Activity (Zika virus [11]): Active; Activity (Zika virus [12]): Active
O[C@@H]1[C@H](O)[C@@H](CNCc2cccs2)O[C@H]1n1cnc2c(NCc3cccc(Cl)c3)ncnc21	6.06	–
O[C@@H]1[C@H](O)[C@@H](CNCc2ccc(C(F)(F)F)cc2)O[C@H]1n1cnc2c(NCc3ccccc3Cl)ncnc21	> 50	–
C[C@@]1(O)[C@H](O)[C@@H](CO)O[C@H]1n1cnc2c(N)ncnc21	–	IC50 (Zika virus [13]): 1.76 µM
O[C@@H]1[C@H](O)[C@@H](CN2CCC3(CCNCC3)CC2)O[C@H]1n1cnc2c(NCc3cccc(Cl)c3)ncnc21	> 50	–
O[C@@H]1[C@H](O)[C@@H](CNCc2ccc(C(F)(F)F)cc2)O[C@H]1n1cnc2c(NCc3cccc(F)c3)ncnc21	4.18	–
CCOC(=O)C1CCN(C[C@H]2O[C@@H](n3cnc4c(NCc5cccc(Cl)c5)ncnc43)[C@H](O)[C@@H]2O)CC1	26.8	–
OC1CCN(C[C@H]2O[C@@H](n3cnc4c(NCc5cccc(Cl)c5)ncnc43)[C@H](O)[C@@H]2O)CC1	> 50	–
CN(Cc1ccc(F)cc1)C[C@H]1O[C@@H](n2cnc3c(NCc4cccc(Cl)c4)ncnc32)[C@H](O)[C@@H]1O	5.76	–
CC(C)N1CCN(C[C@H]2O[C@@H](n3cnc4c(NCc5cccc(Cl)c5)ncnc43)[C@H](O)[C@@H]2O)CC1	> 50	–
COc1cccc(CNc2ncnc3c2ncn3[C@@H]2O[C@H](CNCc3ccc(C(F)(F)F)cc3)[C@@H](O)[C@H]2O)c1	7.5	–
O=[N+]([O-])c1ccc(CNC[C@H]2O[C@@H](n3cnc4c(NCc5cccc(Cl)c5)ncnc43)[C@H](O)[C@@H]2O)cc1	7.52	–
O[C@@H]1[C@H](O)[C@@H](CNCc2ccc(C(F)(F)F)cc2)O[C@H]1n1cnc2c(NCc3ccco3)ncnc21	13.2	–
